Molecules are shown by their SMILES.

For this experiment, the target named is T1, h5-HT4b (Homo sapiens, UniProt Q13639).
T1 construct: expressed in transfected cells; host or cells: HEK 293 (clone 9), membrane preparation
T1 sequence (Q13639 whole entry): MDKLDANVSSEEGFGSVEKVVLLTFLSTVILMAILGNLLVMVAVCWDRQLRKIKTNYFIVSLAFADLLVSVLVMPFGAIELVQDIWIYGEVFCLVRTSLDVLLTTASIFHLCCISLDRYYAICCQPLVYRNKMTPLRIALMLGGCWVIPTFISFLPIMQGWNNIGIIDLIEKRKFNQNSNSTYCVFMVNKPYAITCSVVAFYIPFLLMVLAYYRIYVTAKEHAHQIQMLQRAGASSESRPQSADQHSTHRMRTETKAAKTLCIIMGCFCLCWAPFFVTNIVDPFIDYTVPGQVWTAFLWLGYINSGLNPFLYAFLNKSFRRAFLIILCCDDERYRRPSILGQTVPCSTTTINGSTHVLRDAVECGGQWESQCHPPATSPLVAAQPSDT
The experiment can be described thus: 5HT4 antagonism: [3H]GR113808 binding to membranes of h5-HT4b-HEK 293 clone 9 cells. Conditions: [3H]GR113808 0.1 nM, h5-HT4b-HEK 293 membranes, 30 min at 25° C. Here is the method: h5-HT4b-HEK 293 clone 9 cells were cultured in 150 mm Petri dishes and washed twice with cold PBS. The cells were then scraped from the plates and suspended in 50 mM Tris-HCl buffer, pH 7.4 and harvested by centrifugation at 23,500 rpm for 10 minutes. The pellet was resuspended in 5 mM Tris-HCl, pH 7.4 and homogenized with an Ultra Turrax homogenizer. The membranes were collected by centrifugation at 30,000 rpm for 20 min, resuspended in 50 mM Tris-HCl pH 7.4 and stored at −80° C. For the experiment, assay mixtures (0.5 ml) contained 50 μl of the tritiated ligand (5-HT4 antagonist [^3H]GR113808 0.1 nM) and 0.4 ml membrane preparation (15 μg protein/ml). 50 μl of 10% DMSO was added for total binding. 50 μl of 1 μM of (+)-trans-(1-butyl-3-hydroxy4-piperidinyl)methyl 8-amino-7-chloro-2,3-dihydro-1,4-benzodioxin-5-carboxylate (a proprietary 5HT4 agonist of Janssen Pharmaceutica) was added for determination of non-specific binding.
The [^3H]GR113808 assay buffer was 50 mM HEPES-NaOH, pH 7.4. The mixtures were incubated for 30 min at 25° C. The incubation was terminated by filtration over a Unifilter 96 GF/B presoaked in 0.1% polyethylenimine, followed by six washing steps with 50 mM HEPES-NaOH, pH 7.4.
In turn, `COc1c(Cl)cc(C(=O)NC[C@@H]2CCN(CCn3ccn(C(C)C)c3=O)C[C@H]2OC)c2c1OCCO2` [compound 70] showed an IC50 of 263 nM.

Consider `CCCCN1CC[C@@H](CNC(=O)c2cc(Cl)c(OC)c3c2OCCCO3)[C@H](OC)C1` [compound 71], for which the half-maximal inhibitory concentration (IC50) is 10.7 nM.

`COc1c(Cl)cc(C(=O)NC[C@@H]2CCN(CCC3OCCO3)C[C@H]2OC)c2c1OCCCO2` [compound 72] gave a concentration for half-maximal inhibition (IC50) of 21.4 nM.

With `COc1c(Cl)cc(C(=O)NC[C@@H]2CCN(CC3CCCO3)C[C@H]2OC)c2c1OCCCO2` (stereo partly drawn) [compound 73], the 50% inhibitory concentration (IC50) was 18.2 nM.

In turn, `CNCCCN1CC[C@@H](CNC(=O)c2cc(Cl)c(Cl)c3c2OCCCO3)[C@H](OC)C1` [compound 74] showed a half-inhibitory concentration (IC50) of 5.37 nM.

`CO[C@@H]1CN(CCCO)CC[C@H]1CNC(=O)c1cc(Cl)c(Cl)c2c1OCCCO2` [compound 75] showed a half-maximal inhibitory concentration (IC50) of 3.09 nM.

`COCCCN1CC[C@@H](CNC(=O)c2cc(Cl)c(OC)c3c2OCCO3)[C@H](OC)C1` [compound 76]: the concentration for half-maximal inhibition (IC50) is 21.9 nM.

As to `CCCCN1CC[C@@H](CNC(=O)c2cc(Cl)c(OC)c3c2OCCO3)[C@H](OC)C1` [compound 77], the IC50 was 8.91 nM.

`CNCCCN1CC[C@@H](CNC(=O)c2cc(Cl)c(OC)c3c2OCCO3)[C@H](OC)C1` [compound 78] gave an IC50 of 174 nM.

With `COc1c(Cl)cc(C(=O)NC[C@@H]2CCN(CCn3ccn(C(C)C)c3=O)C[C@H]2OC)c2c1OCCCO2` [compound 79], the IC50 is 229 nM.

In turn, `CNCCCN1CC[C@@H](CNC(=O)c2cc(Cl)c(Br)c3c2OCCCO3)[C@H](O)C1` [compound 80] gave an IC50 of 6.31 nM.

Compound `CCCCN1CC[C@@H](CNC(=O)c2cc(Cl)c(Cl)c3c2OCCCO3)[C@H](OC)C1` [compound 81] gave an IC50 of 2.09 nM.

In turn, `CO[C@@H]1CN(CCn2ccn(C(C)C)c2=O)CC[C@H]1CNC(=O)c1cc(Cl)c(Cl)c2c1OCCCO2` [compound 82] gave a half-inhibitory concentration (IC50) of 8.32 nM.

For `CNCCN1CC[C@@H](CNC(=O)c2cc(Cl)c(OC)c3c2OCCO3)[C@H](O)C1` [compound 83], the concentration for half-maximal inhibition (IC50) was 64.6 nM.

As for `CNCCN1CC[C@@H](CNC(=O)c2cc(Cl)c(Cl)c3c2OCCCO3)[C@H](OC)C1` [compound 84], the half-inhibitory concentration (IC50) is 5.25 nM.

`CNCCCN1CC[C@@H](CNC(=O)c2cc(Cl)c(Cl)c3c2OCCCO3)[C@H](O)C1` [compound 85] had an IC50 of 2.69 nM.

Turning to `CNCCCCN1CC[C@@H](CNC(=O)c2cc(Cl)c(Cl)c3c2OCCCO3)[C@H](OC)C1` [compound 86], the IC50 was 0.912 nM.

`COc1c(Cl)cc(C(=O)NC[C@@H]2CCN(CCC3OCCO3)C[C@H]2OC)c2c1OCCO2` [compound 87]: the half-maximal inhibitory concentration (IC50) is 30.9 nM.

For `O=C(NC[C@@H]1CCN(CCC2OCCO2)C[C@H]1O)c1cc(Cl)c(Cl)c2c1OCCCO2` [compound 88], the concentration for half-maximal inhibition (IC50) was 2.24 nM.

The compound `N#CCCCN1CC[C@@H](CNC(=O)c2cc(Cl)c(Cl)c3c2OCCCO3)[C@H](O)C1` [compound 89] gave an IC50 of 2.09 nM.

As to `CNCCCCN1CC[C@@H](CNC(=O)c2cc(Cl)c(Cl)c3c2OCCCO3)[C@H](O)C1` [compound 90], the IC50 is 2.04 nM.

For `CC(C)n1ccn(CCN2CC[C@@H](CNC(=O)c3cc(Cl)c(Br)c4c3OCCCO4)[C@H](O)C2)c1=O` [compound 91], the IC50 is 13.5 nM.

With `CNCCN1CC[C@@H](CNC(=O)c2cc(Cl)c(OC)c3c2OCCO3)[C@H](OC)C1` [compound 92], the IC50 is 490 nM.

As to `Cc1ccc(C(=O)NC[C@@H]2CCN(CCCC#N)C[C@H]2O)c2c1OCCCO2` [compound 94], the IC50 was 1.86 nM.

`Cc1ccc(C(=O)NC[C@@H]2CCN(CC3CCCO3)C[C@H]2O)c2c1OCCCO2` (stereo partly drawn) [compound 95]: the IC50 was 1.02 nM.

For the compound `Cc1ccc(C(=O)NC[C@@H]2CCN(CCCNS(C)(=O)=O)C[C@H]2O)c2c1OCCCO2` [compound 96], the IC50 is 0.977 nM.

For `COc1ccc(C(=O)NC[C@@H]2CCNC[C@H]2O)c2c1OCCCO2` [compound 97], the IC50 was 56.2 nM.

Compound `COCCCN1CC[C@@H](CNC(=O)c2ccc(OC)c3c2OCCCO3)[C@H](O)C1` [compound 98] had an IC50 of 2.63 nM.

For the compound `COc1ccc(C(=O)NC[C@@H]2CCN(CCCO)C[C@H]2O)c2c1OCCCO2` [compound 99], the half-maximal inhibitory concentration (IC50) is 7.24 nM.

As to `CCCCN1CC[C@@H](CNC(=O)c2ccc(OC)c3c2OCCCO3)[C@H](O)C1` [compound 100], the IC50 was 0.331 nM.

Compound `COc1ccc(C(=O)NC[C@@H]2CCN(CCC3OCCO3)C[C@H]2O)c2c1OCCCO2` [compound 101] gave an IC50 of 2.45 nM.

For `CNCCCCN1CC[C@@H](CNC(=O)c2ccc(OC)c3c2OCCCO3)[C@H](O)C1` [compound 102], the IC50 was 6.46 nM.

For `COc1ccc(C(=O)NC[C@@H]2CCN(CC3CCCO3)C[C@H]2O)c2c1OCCCO2` (stereo partly drawn) [compound 103], the concentration for half-maximal inhibition (IC50) is 8.71 nM.

With `Cc1ccc(C(=O)NC[C@@H]2CCNC[C@H]2O)c2c1OCCCO2` [compound 104], the IC50 was 28.2 nM.

As for `Cc1ccc(C(=O)NC[C@@H]2CCN(CCCOc3ccc(S(N)(=O)=O)cc3)C[C@H]2O)c2c1OCCCO2` [compound 105], the IC50 was 0.603 nM.

The compound `Cc1ccc(C(=O)NC[C@@H]2CCN(CCCCOc3ccc(S(N)(=O)=O)cc3)C[C@H]2O)c2c1OCCCO2` [compound 106] had a 50% inhibitory concentration (IC50) of 0.813 nM.

Consider `Cc1ccc(C(=O)NC[C@@H]2CCN(CCOc3ccc(S(N)(=O)=O)cc3)C[C@H]2O)c2c1OCCCO2` [compound 108], for which the concentration for half-maximal inhibition (IC50) was 1.78 nM.

Regarding `COCCCN1CC[C@@H](CNC(=O)c2ccc(OC)c3c2OCCCO3)[C@H](O)C1` [compound 110], the half-maximal inhibitory concentration (IC50) is 3.09 nM.

`CCN1CC[C@@H](CNC(=O)c2ccc(C)c3c2OCCCO3)[C@H](O)C1` [compound 111] had an IC50 of 0.871 nM.

For the compound `COc1ccc(C(=O)NC[C@@H]2CCN(CCCC#N)C[C@H]2OC)c2c1OCCCO2` [compound 112], the IC50 is 72.4 nM.

Consider `COc1ccc(C(=O)NC[C@@H]2CCN(CCCO)C[C@H]2O)c2c1OCCCO2` [compound 113], for which the concentration for half-maximal inhibition (IC50) is 3.24 nM.

Regarding `CCCCN1CC[C@@H](CNC(=O)c2ccc(OC)c3c2OCCO3)[C@H](O)C1` [compound 114], the 50% inhibitory concentration (IC50) was 2.63 nM.

As for `COCCCN1CC[C@@H](CNC(=O)c2ccc(OC)c3c2OCCO3)[C@H](O)C1` [compound 115], the 50% inhibitory concentration (IC50) was 11.7 nM.

`COc1ccc(C(=O)NC[C@@H]2CCN(CCCO)C[C@H]2O)c2c1OCCO2` [compound 116]: the IC50 was 5.25 nM.

In turn, `CNCCCCN1CC[C@@H](CNC(=O)c2ccc(OC)c3c2OCCO3)[C@H](O)C1` [compound 118] had a 50% inhibitory concentration (IC50) of 6.76 nM.

`COc1ccc(C(=O)NC[C@@H]2CCN(CCCO)C[C@H]2OC)c2c1OCCO2` [compound 119] showed an IC50 of 20.4 nM.

`CCN1CC[C@@H](CNC(=O)c2ccc(OC)c3c2OCCCO3)[C@H](OC)C1` [compound 120] gave an IC50 of 28.2 nM.

With `COc1ccc(C(=O)NC[C@@H]2CCN(CCCCO)C[C@H]2O)c2c1OCCCO2` [compound 121], the half-maximal inhibitory concentration (IC50) was 4.57 nM.

In the case of `COc1ccc(C(=O)NC[C@@H]2CCN(CCCCC(N)=O)C[C@H]2O)c2c1OCCCO2` [compound 122], the IC50 was 4.07 nM.

As for `CCCCN1CC[C@@H](CNC(=O)c2ccc(OC)c3c2OCCCO3)[C@H](OC)C1` [compound 123], the half-maximal inhibitory concentration (IC50) was 11 nM.

In the case of `COCCCN1CC[C@@H](CNC(=O)c2ccc(OC)c3c2OCCCO3)[C@H](OC)C1` [compound 124], the IC50 is 24.5 nM.

The values above are taken from patent US7635706B2, “5HT4-antagonistic 4-(aminomethyl)-piperidine benzamides” (Janssen Pharmaceutica NV, priority 2003, dated 2009).
